From patent US6506928B1, “Dendrimeric fullerene derivatives, process for their preparation, and use as neuroprotectants” (Siemens Axiva GmbH & Co. KG, priority 1998, dated 2003)
Converted amounts (≈) assume the structure as drawn.

Assays:
[1] = system: apoptotic neural death; conditions: induced by serum withdrawal or exposure of Aβ1-42 protein; literature /12/; cited from earlier work
[2] = physchem
Description: The dendrimer fullerene 1 of second generation [18-cascade:methano-C60-fullerene[2]:(2-aza-7-oxa-3,8-dioxooctylidyne):(2-aza-3-oxopentylidyne):propanoic acid] (cf. preparation example 1) is prepared (Scheme 3) analogously to the synthesis of the derivative of first generation 8 shown in Scheme 2. As in the first case, the tert-butyl-protected γ-aminotriscarboxylic acid 3 is reacted with the appropriate nitrotriscarboxylic acid 9, whose tert-butyl ester is the synthesis precursor of 3 (15, 16), using DCC in the presence of 1HO-BT and subsequent reduction with hydrogen to the dendron 10 of second generation [9-cascade:aminomethane[3]:(2-aza-3-oxopentylidyne):tert-butyl propanoate]. […] The analogous removal of the protective groups leads to the dendrimer fullerene 1 of the second generation.

Compound	reduction of apoptotic neural death [1]	solubility (in words) [2]	solubility ([2]; 25 °C, pH 7, aqueous buffer)	solubility ([2]; pH 10, aqueous buffer)
C60[C(COOH)2]3 [C3-symmetrical derivative]	reduced apoptotic neural death	–	–	–
O=CCCC(CCC(=O)O)(CCC(=O)O)NC(=O)CCC(CCC(=O)NC(CCC(=O)O)(CCC(=O)O)CCC(=O)O)(CCC(=O)NC(CCC(=O)O)(CCC(=O)O)CCC(=O)O)NC(=O)CCCOC(=O)C1(C(=O)OCCCC(=O)NC(CCC(=O)NC(CCC(=O)O)(CCC(=O)O)CCC(=O)O)(CCC(=O)NC(CCC(=O)O)(CCC(=O)O)CCC(=O)O)CCC(=O)NC(CCC(=O)O)(CCC(=O)O)CCC(=O)O)C2c3cc4c5c6c(cc7ccc8cc9c%10c%11c(cc(c%12c3c5c(c%12%11)c3c6c7c8c%103)C21)C9)C4 (stereo not shown) [compound 1, 18-cascade:methano-C60-fullerene[2]:(2-aza-7-oxa-3,8-dioxooctylidyne):(2-aza-3-oxopentylidyne):propanoic acid]	–	very readily soluble	~34 mg/mL (≈ 13.7 mM)	~250 mg/mL (≈ 100 mM)
